Laboratory results from patent publication US12703836B2, “Mixture of compounds with high molecular weights, obtained from sugar cane wax (Saccharum officinarum L.)” (CENTRO NACIONAL DE INVESTIGACIONES CIENTÍFICAS, priority 2021, dated 2026).

Legend:
[1] = system: plasma sulfhydryl (SH) groups; test: Plasma protein oxidation (sulfhydryl groups) after cerebral ischemia/reperfusion; format: in vivo, Mongolian gerbils; conditions: gerbils, plasma after I/R; oral HMWS 200, AcGS 132, AlcG 40, AldG 28, AcGL 200, ASA 60 mg/kg
From the text: For the evaluation of the neuroprotective effect of the mixture of high molecular weight substances, the object of the present invention, an experimental model of global cerebral ischemia by occlusion and reperfusion of the carotid arteries was used. The composition of High Molecular Weight Substances (HMWS) obtained in example 1 was subjected to a preclinical test with animals, in which its pharmacological effect was compared with the effects of pure extracts of Fatty Acids in the form of Salts (AcGS), fatty alcohols (AlcG) and high molecular weight aldehydes (AldG), which were administered in the dose equivalent to the proportion in which each one is present in 200 mg/kg of the HMWS Active Ingredient. Furthermore, the effect of HMWS was compared with the effect of pure free fatty acid (AcGL) extract administered at equal doses. […] To determine lipid peroxidation, the formation of substances reactive to thiobarbituric acid (SRATB) was quantified (according to Ohkawa et al., 1979) in plasma, and was expressed as nmol malondialdehyde (MDA)/mg of protein. To determine protein oxidation, sulfhydryl (SH) groups were determined (technique described by Miao-Lin Hu, 1994). […] The absorbance of the supernatant was read at 412 nm. […] The protein concentration was determined by the modified Lowry method ([…], 1987).

[2] = system: spinal cord of rabbits with Ischemia/Reperfusion (I/R); test: Histological score of the spinal cord after ischemia/reperfusion; format: in vivo, New Zealand rabbits; conditions: oral for 10 days: HMWS 200, AcGS 132, AlcG 40, AldG 28, AcGL 200, ASA 60 (table) mg/kg
Description: Furthermore, the effect of HMWS was compared with that of pure extract of free fatty acids (AcGL) administered at equal doses.
The substances HMWS, AcGS, AlcG, AldG, AcGL and aspirin were prepared as suspensions in an acacia/water vehicle (1%). Once the quarantine was completed, the rabbits were distributed into 8 groups: a negative control that only received vehicle and was not induced ischemia and 7 groups with spinal cord ischemia: a positive control treated only with the vehicle, and 6 groups were treated with HMWS (200 mg/kg), AcGS (132 mg/kg), AlcG (40 mg/kg), AldG (28 mg/kg), AcGL (200 mg/kg), and aspirin (2 mg/kg) as reference substance. All treatments were administered orally via intragastric tubing (1 mL/2 kg body weight) for 10 days.
For the induction of ischemia in the spinal cord, the rabbits were anesthetized with thiopental (20 mg/kg i.v.). The abdomen was depilated, an antiseptic solution was applied, an incision was made in the ventral midline and the retroperitoneal space was penetrated. The aorta and left renal artery were dissected and exposed. The aorta was ligated by placing a clip immediately below the left renal artery for 20 minutes, after which it was removed and the reperfusion period began. […] At 4 and 24 hours of reperfusion, the neurological deficit of the animals was blindly evaluated by 2 independent observers (according to Zivin et al., 1982). […]

CC(=O)Oc1ccccc1C(=O)O [ASA, aspirin]
Inhibition (%) of SH groups increase [1]: 12% | Histologic Score (spinal cord, 3 = no injuries, 0 = severe) ([2]; 24 hours after reperfusion, positive control 0.00 ± 0.05): 0.9 ± 0.15 | Inhibition (%) of histological damage in the spinal cord ([2]; I/R): 30%
